Measured values: paper PMC6396489 (Cell Communication and Signaling : CCS, 2019)

Key:
Src [1] = assay: Western blotting of Src and PLCγ phosphorylation in NIH3T3 cells; format: cell-based
Procedure: NIH3T3 and Raw 264.7 cells were cultured in DMEM supplemented with 2 mM L-glutamine, 50 U/mL penicillin, […] streptomycin, and 10% CS or heat-inactivated FBS (30 min at 55 °C), respectively. NIH3T3 cells were transfected with different plasmids using the Lipofectamine LTX/plus reagent according to the manufacturer’s instructions. For immunofluorescence experiments, NIH3T3 cells were seeded onto glass coverslips in 24-well plates at a concentration suitable for 70% confluence without transfection or 50% confluence in the case of Lipofectamine-based cell transfection. In the latter, approximately 24 h after seeding, NIH3T3 cells were transiently transfected with different plasmids with the Lipofectamine LTX/plus reagent following the manufacturer’s instructions. Before treatments, NIH3T3 cells were serum-starved in DMEM with 2 mM glutamine, 50 U/mL penicillin and streptomycin for 16–20 h. The cells were then treated with different stimuli and/or inhibitors, as indicated in the text and/or Figure legends. Addition of exogenous GroPIns4P was at 50 μM (unless otherwise indicated), a concentration eliciting an intracellular concentration of about 1.5 μM, as calculated from the Nernst equation (with T = 300 K, z = − 3, and Veq = − 30 mV, an average value for cultured, non-excitable cells).
NIH3T3 cells were washed with ice-cold PBS and lysed on ice in buffer containing 20 mM Tris-HCl, pH 8.0, 150 mM NaCl, 1% Triton-X100, 5 mM Na3VO4, 30 mM β-glycerophosphate and 10 mM NaF supplemented with the protease inhibitor cocktail and processed for SDS-PAGE. Westen blotting was performed with the relevant antibodies. For immunoprecipitation experiments, 2 μg of an anti-Shp1 antibody or 5 μg of an anti-Src antibody were added to 1 mg of NIH3T3 cell lysates at 4 °C and incubated overnight. The samples were then incubated with A or G protein agarose beads for 1 h at 4 °C. Western blotting was performed from the washed and denatured complexes.

Src [2] = tested on: Src; design: method as in PMID 18722484; settings: cited from earlier work
[3] = NIH3T3 overexpressing Shp1-C455S, 50 μM

O=P(O)(O)OC1C(O)C(O)C(OP(=O)(O)OCC(O)CO)C(O)C1O (stereo not drawn) [GroPIns4P, glycerophosphoinositol 4-phosphate]
phosphorylation of PLCγ on Tyr783 (Src [1]; NIH3T3, 50 μM): induced an increase in phosphorylation | Src activating Tyr418 phosphorylation (Src [1]; NIH3T3, 50 μM for 2 to 5 min): increased | Src inhibitory Tyr530 phosphorylation (Src [1]; NIH3T3, 50 μM for 2 to 5 min): markedly decreased | Src Tyr418 or PLCγ tyrosine phosphorylation (Src [1]; [3]): no increase | Src dephosphorylation (pTyr530) (Src [1]; [3]): failed to induce Src dephosphorylation | direct interaction with Src (Src [2]): no direct interaction
